Key:
Type in all cases: in vivo, C57BL/6 mice
[1] = test system: radiation-induced pulmonary fibrosis (RIPF); assay: Degree of inflammation and fibrosis, H&E and Masson's Trichrome staining, radiation-induced pulmonary fibrosis; details: SBRT 90 Gy, nintedanib 60 mg/kg, oral, 2 weeks after radiation exposure, vs untreated
Procedure: (§1) One hour before stereotactic body radiation therapy (SBRT; 90 Gy, 4 mm collimator), DCTP and nintedanib, an FDA-approved drug known to inhibit pulmonary fibrosis, were orally administered to seven-week-old male C57BL/6 mice. The degree of pulmonary fibrosis and the inhibitory effect on radiation-induced lung injury were observed two weeks after radiation exposure.
(§2) The DCTP drug was administered at a dose of 30 mg/kg, and nintedanib was administered once daily (o.d.) at a dose of 60 mg/kg.
In addition, to analyze the degree of inflammatory response and the degree of fibrosis two weeks after radiation exposure, H&E staining and Masson's Trichrome staining were performed, and the results are shown in FIG. 5.
as §1, with “prior to” for “before”, “PXDP” for “DCTP”
(§3) The PXDP drug was administered at a dose of 100 mg/kg, and nintedanib was administered once daily (o.d.) at a dose of 60 mg/kg. To analyze the degree of inflammatory response and the degree of fibrosis 2 weeks after radiation exposure, H&E staining and Masson's Trichrome staining were performed, and the results are shown in FIG. 11.

[2] = test system: idiopathic pulmonary fibrosis induced by bleomycin; assay: Inhibitory effect on idiopathic pulmonary fibrosis induced by bleomycin, Micro-CT imaging; details: bleomycin 1.5 U/kg, nintedanib 60 mg/kg, oral once daily for two weeks from day 14, 4 weeks after bleomycin, vs untreated
Procedure: (§4) Each drug was administered starting 14 days after the administration of bleomycin. The drug was orally administered at a dose of 20 mg/kg once daily for two weeks (a total of 13 administrations). The control drug, nintedanib, was administered at a dose of 60 mg/kg, and the co-administration group was orally administered nintedanib (60 mg/kg) together with DCTP (20 mg/kg) once daily for two weeks (a total of 13 administrations).
(§5) Each drug was administered starting 14 days after the administration of bleomycin. Nintedanib and PXDP were each orally administered at a dose of 60 mg/kg once daily for two weeks (a total of 13 administrations), and the group treated with the combination was orally administered nintedanib (60 mg/kg) together with PXDP (60 mg/kg) once daily for two weeks (a total of 13 administrations).

[3] = test system: idiopathic pulmonary fibrosis induced by bleomycin; assay: Degree of inflammation and fibrosis, H&E and Masson's Trichrome staining, bleomycin-induced idiopathic pulmonary fibrosis; details: bleomycin 1.5 U/kg, nintedanib 60 mg/kg, oral once daily for two weeks from day 14, vs untreated
Procedure: as §4
The results of H&E and Masson's Trichrome staining performed to evaluate the degree of inflammation and fibrosis are shown in FIG. 3.
as §5
The results of H&E and Masson's Trichrome staining performed to evaluate the degree of inflammation and fibrosis are shown in FIG. 8.

[4] = test system: radiation-induced pulmonary fibrosis (RIPF); assay: Inhibitory effect on radiation-induced pulmonary fibrosis, Micro-CT imaging; details: SBRT 90 Gy, 2 weeks after radiation exposure; for degree of fibrosis by Micro-CT imaging: vs untreated
Procedure: as §1, §2
as §1, with “prior to” for “before”, “PXDP” for “DCTP”
as §3

[5] = Example 3, FIG. 5, DCTP 30 mg/kg
[6] = Example 5, FIG. 7, PXDP 60 mg/kg
[7] = Example 5, FIG. 8, PXDP 60 mg/kg
[8] = Example 6, FIG. 10, PXDP 100 mg/kg, nintedanib 60 mg/kg, oral
[9] = Example 6, FIG. 11, PXDP 100 mg/kg

COc1cc2ncnc(N(C(=O)OCCN3CCN(C)CC3)c3ccc(F)c(Cl)c3)c2cc1NC(=O)/C=C/CN1CCCCC1 [DCTP, 2-(4-methylpiperazin-1-yl)ethyl (E)-(3-chloro-4-fluorophenyl) (7-methoxy-6-(4-(piperidin-1-yl)but-2-enamido)quinazolin-4-yl) carbamate]
degree of inflammation and fibrosis by H&E and Masson's Trichrome staining [1, 5]: reduction in fibrosis and inflammation in the lungs

CN1CCN(CCOC(=O)N(Cc2ccc(C(F)(F)F)nc2)c2ccc(Cc3c[nH]c4ncc(Cl)cc34)cn2)CC1 [PXDP, 2-(4-methylpiperazin-1-yl)ethyl (5-((5-chloro-1H-pyrrolo[2,3-b]pyridin-3-yl)methyl)pyridin-2-yl)((6-(trifluoromethyl)pyridin-3-yl)methyl) carbamate]
degree of fibrosis by Micro-CT imaging [2, 6]: reduction in the degree of fibrosis
degree of inflammation and fibrosis by H&E and Masson's Trichrome staining [3, 7]: alleviation of pulmonary fibrosis and inflammation
effect compared with nintedanib (Micro-CT imaging) ([4]; Example 6, FIG. 10, PXDP 100 mg/kg vs nintedanib 60 mg/kg, oral): superior to that of nintedanib
degree of fibrosis by Micro-CT imaging [4, 8]: reduction in the degree of fibrosis
degree of inflammation and fibrosis by H&E and Masson's Trichrome staining [1, 9]: alleviation of fibrosis and inflammation in the lungs

COC(=O)c1ccc2c(c1)NC(=O)/C2=C(\Nc1ccc(N(C)C(=O)CN2CCN(C)CC2)cc1)c1ccccc1 [nintedanib]
degree of fibrosis by Micro-CT imaging ([2]; Example 2, FIG. 2, DCTP 20 mg/kg): reduction in the degree of fibrosis
degree of fibrosis by Micro-CT imaging [2, 6]: reduction in the degree of fibrosis
degree of inflammation and fibrosis by H&E and Masson's Trichrome staining ([3]; Example 2, FIG. 3, DCTP 20 mg/kg): alleviation of pulmonary fibrosis and inflammation
degree of inflammation and fibrosis by H&E and Masson's Trichrome staining [3, 7]: alleviation of pulmonary fibrosis and inflammation
degree of fibrosis by Micro-CT imaging ([4]; Example 3, FIG. 4, nintedanib 60 mg/kg oral once daily): reduction in the degree of fibrosis
degree of fibrosis by Micro-CT imaging [4, 8]: reduction in the degree of fibrosis
degree of inflammation and fibrosis by H&E and Masson's Trichrome staining [1, 5]: reduction in fibrosis and inflammation in the lungs
degree of inflammation and fibrosis by H&E and Masson's Trichrome staining [1, 9]: alleviation of fibrosis and inflammation in the lungs

From patent US20260297037A1, “COMPOUND COMPRISING N-METHYLPIPERAZINE ETHANOL CARBAMATE STRUCTURE AND USE THEREOF” (KOREA INSTITUTE OF RADIOLOGICAL & MEDICAL SCIENCES, priority 2023, published 2026)
